Source: patent US11654136B2, “Phosphoinositide 3-kinase inhibitor with a zinc binding moiety” (Curis, Inc., priority 2011, dated 2023)

Assays:
[1] = tested on: SU-DHL4 (diffuse large B-cell lymphoma cell line) xenograft tumors; assay: SU-DHL4 xenograft tumor model; type: in vivo, nude mice
Description: SU-DHL4 (diffuse large B-cell lymphoma cell line), H2122 (human NSCLC cell line), Daudi (non-Hodgkin's lymphoma cell line), and OPM2 (multiple myeloma tumor cell line) cells were implanted into either nude or Scid (severe […] immune-deficient) mice. […]. […] The control groups were treated with vehicle using the same dosing schedule as the corresponding active group.
In another study, the Daudi tumor group was dosed at 50 mg/Kg twice a day for five days per week. […] The SU-DHL4 tumor group was dosed at 100 mg/Kg orally or 50 mg/Kg intravenously.
Tumors were measured during the study period with an electronic caliper, and body weights were measured twice a week. The following formula was used to calculate the tumor volume: […] Percentage of tumor volume change was used to describe compound activity over the treatment period.

MM1R subcutaneous tumor = assay: MM1R xenograft model; type: in vivo, SCID/Beige mice; conditions: oral gavage five times per week
Description: Female SCID/Beige mice at age 4 weeks were housed in ventilated micro-isolator cages (INNOCAGE®IVC, Innovive Inc., San Diego, Calif.) in a controlled climate, fed with sterile high-fat diet (Problab-RMH 2000) ad libitum and provided with sterilized water. All housing and supplies for SCID/Beige mice were sterilized by autoclaving before use. Mice were inspected daily including weekends/holidays by trained animal facility personnel and investigators. All animal procedures were performed under sterile conditions within a biosafety cabinet (for injections) or laminar flow hood (for animal husbandry and non-invasive procedures).
MM1R human MM cells were originally obtained from peripheral blood of a multiple myeloma patient (Goldman-Leikin R E, et al., J Lab Clin Invest. 1980, 13:335-345). Cryopreserved cells were thawed in a 37° C. water bath and cultured in RPMI medium plus 10% Fetal Bovine Serum (FBS) in a tissue culture incubator at 5% CO2. Cells were sent to outside vendors for contaminants and rodent pathogen screening intended to rule out contamination by mycoplasma (by PCR) and/or virus (by MAP test, Mouse Antibody Production). When the cells in culture were enough for implantation, they washed with serum free Hank's balanced salt solution (HBSS). Finally the cells were diluted in HBSS for implantation. […] The implanted mice were monitored for general health and tumor development daily.
(§1) Tumors were detectable about two weeks following implantation. Tumor size was measured with a caliper. […]
(§2) During each animal study, tumors were measured with calipers, tumor size determined using the above mentioned formula, and tumor size changes in percentage calculated. Mouse body weights were measured with a scale twice per week. […] T/C values were calculated using the following formula: % T/C=100×ΔT/ΔC if ΔT>0. […]
The treatment period was 18 days. Tumor sizes and body weights were measured again on the last day of the study.

[2] = tested on: Daudi human Burkitt's lymphoma xenograft; assay: Comparison with CAL-101 in the Daudi xenograft tumor model; type: in vivo, SCID beige mice; conditions: 100 mg/kg Qd (Mon-Fri), PO; 18 days
Description: Female SCID beige mice (CD-1 Beige SCID) at 6-8 weeks of age were housed in ventilated micro-isolator cages in a controlled climate, fed with sterile high-fat diet (Problab-RMH 2000 ad libitum and provided with sterilized water. All housing and supplies for SCID beige mice are disposable, and purchased irradiated from Innovive prior to use. Mice were inspected daily including weekends/holidays by trained animal facility personnel and investigators. All animal procedures were performed under sterile conditions in a biosafety cabinet (for injections) or laminar flow hood (for animal husbandry and non-invasive procedures).
Daudi human Burkitt's lymphoma cells were originally obtained from a human Burkitt's lymphoma patient. […] The implanted mice were monitored for general health and tumor development daily.
as §1, §2
Tumor sizes and body weights were measured again on the last day of the study.

**Q.** For `COc1ccc(-c2nc(N3CCOCC3)c3sc(CN(C)c4ncc(C(=O)NO)cn4)cc3n2)cn1` [Compound 1, N-hydroxy-2-(((2-(6-methoxypyridin-3-yl)-4-morpholinothieno[3,2-d]pyrimidin-6-yl)methyl)(methyl)amino)pyrimidine-5-carboxamide], which Tumor growth ([1]; intravenous (IV) 50 mg/kg) is on record?
**A.** Its Tumor growth is “strongly inhibited tumor growth”.

**Q.** What about the Tumor growth ([1]; orally (PO) 100 mg/kg) of the same compound?
**A.** Its Tumor growth is “strongly inhibited tumor growth”.

**Q.** What about the T/C value (MM1R subcutaneous tumor; day-17, p<0.0001) of the same compound?
**A.** The T/C value was 21.15%.

**Q.** What about the “Body weight and side effects” value (MM1R subcutaneous tumor; single agent, 18 days) of the same compound?
**A.** Its value is “No body weight loss or other side effects were observed”.

**Q.** What about the Tumor growth (MM1R subcutaneous tumor; single agent, 18 days) of the same compound?
**A.** The Tumor growth was “inhibited tumor growth”.

**Q.** And the Tumor growth [2]?
**A.** Its Tumor growth is “significantly reduced tumor growth compared to the CAL-101 and control groups”.
